Laboratory results: patent publication US6437177B1, “α-hydroxy, -amino, and halo derivatives of β-sulfonyl hydroxamic acids as matrix metallopropteinases inhibitors” (priority 1997, dated 2002)

Test system: not given
Test: not given
Conditions: not given

| melting point [°C] | Compound |
| --- | --- |
| 75 to 80 | COc1ccc(S(=O)(=O)CC(O)(CS(=O)(=O)c2ccc(OC)cc2)C(=O)NO)cc1 [Example 4] |

Molecular target: Stromelysin (Homo sapiens, UniProt P08254)
Test: MMP inhibition, particle concentration fluorescence assay (stromelysin)
Assay type: biochemical
Conditions: in vitro; fluorescein/biotin substrate; MMP buffer pH 7.5; room temperature
Description: Inhibitory activity is evaluated in one or more of the MMP enzymes (stromelysin, gelatinase, and collagenase) in vitro using particle concentration fluorescence assay. An inhibitor binds to MMP enzymes which prevents the degradation of a substrate by stromelysin, gelatinase, or coilagenase. The substrate has attached to it a fluorescein and a biotin moiety. The intact substrate then binds to an avidin-coated particle via the biotin moiety. Once the particle is washed and dried, a fluorescent signal is generated since the fluorescent group is attached to the particle. Without an inhibitor present, the substrate is degraded by MMP enzymes and the fluorescein group is removed, therefore, no fluorescent signal can be detected. Testing compounds are dissolved in DMSO to the desired concentration, then the solutions are diluted to 1:5 with MMP buffer (50 mM Tris-HCl, pH 7.5; 150 mM NaCl; 0.02% NaN3). Serial two-fold dilutions of each compound are prepared. A concentrated, activated enzyme solution is transferred into each plate of the testing compounds, and the mixture is incubated at room temperature for 15 minutes. Thawed MMP substrate is then added into all plates, and the plates are incubated in the dark for 1-3 hours at room temperature. At this point, the substrate mixture is mixed with 0.1% avidin-coated polystyrene particles. After 15 minutes, the fluorescence values are measured following filtration and washing of the beads. Ki values are then calculated.

Stromelysin, sequence (P08254 100-477): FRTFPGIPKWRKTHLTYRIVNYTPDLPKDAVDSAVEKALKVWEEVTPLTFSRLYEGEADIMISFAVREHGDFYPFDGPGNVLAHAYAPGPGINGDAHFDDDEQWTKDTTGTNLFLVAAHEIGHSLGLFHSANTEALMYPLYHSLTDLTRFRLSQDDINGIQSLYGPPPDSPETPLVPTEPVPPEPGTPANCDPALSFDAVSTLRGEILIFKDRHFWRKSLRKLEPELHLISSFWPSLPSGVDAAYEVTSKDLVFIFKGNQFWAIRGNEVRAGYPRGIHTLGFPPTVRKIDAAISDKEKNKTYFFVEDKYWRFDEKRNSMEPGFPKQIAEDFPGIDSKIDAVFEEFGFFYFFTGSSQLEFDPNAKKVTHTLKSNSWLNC

| Ki [nM] | Compound |
| --- | --- |
| 74 | COc1ccc(S(=O)(=O)CC(O)(CS(=O)(=O)c2ccc(-c3ccccc3)cc2)C(=O)NO)cc1 (racemic) [Example 1, N-Hydroxy-2-hydroxy-2-[(4-methoxybenzenesulfonyl)methyl]-3-(4-phenylbenzenesulfonyl)-propionamide] |
| 21 | COc1ccc(S(=O)(=O)CC(O)(CS(=O)(=O)c2ccc(-c3ccccc3)cc2)C(=O)NO)cc1 (single isomer, unassigned) [Example 1, Enantiomer A, N-Hydroxy-2-hydroxy-2-[(4-methoxybenzenesulfonyl)methyl]-3-(4-phenylbenzenesulfonyl)-propionamide] |
| 80 | COc1ccc(S(=O)(=O)CC(O)(CS(=O)(=O)c2ccc(-c3ccccc3)cc2)C(=O)NO)cc1 (single isomer, unassigned) [Example 1, Enantiomer B, N-Hydroxy-2-hydroxy-2-[(4-methoxybenzenesulfonyl)methyl]-3-(4-phenylbenzenesulfonyl)-propionamide] |
| 180 | COc1ccc(S(=O)(=O)CC(O)(CS(=O)(=O)c2ccc(F)cc2)C(=O)NO)cc1 (stereo not shown) [Example 2, N-Hydroxy-2-hydroxy-2-[(4-methoxybenzenesulfonyl)methyl]-3-(4-fluorobenzenesulfonyl)-propionamide] |
| 46 | CCCCc1ccc(S(=O)(=O)CC(O)(CS(=O)(=O)c2ccc(OC)cc2)C(=O)NO)cc1 (stereo not shown) [Example 3, N-Hydroxy-2-hydroxy-2-[(4-methoxybenzenesulfonyl)methyl]-3-(4-n-butylbenzenesulfonyl)-propionamide] |
| 39 | COc1ccc(S(=O)(=O)CC(O)(CS(=O)(=O)c2ccc(OC)cc2)C(=O)NO)cc1 [Example 4] |
| 240 | COc1ccc(S(=O)(=O)CC(O)(CNC(=O)c2ccccc2)C(=O)NO)cc1 (stereo not shown) [Example 5] |
| 350 | COc1ccc(S(=O)(=O)CC(O)(CNC(=O)C2CCCC2)C(=O)NO)cc1 (stereo not shown) [Example 6, N-Hydroxy-2-hydroxy-2-[(4-methoxybenzenesulfonyl)methyl]-3-[N-(cyclopentylcarbonyl)amino]-propionamide] |
| 280 | COc1ccc(C(=O)NCC(O)(CS(=O)(=O)c2ccc(OC)cc2)C(=O)NO)cc1 (stereo not shown) [Example 7, N-Hydroxy-2-hydroxy-2-[(4-methoxybenzenesulfonyl)methyl]-3-(N-(4-methoxybenzenecarbonyl)amino)-propionamide] |
